Measured values from patent US4360665A, “4"-N-(Substituted)-apramycin antibiotic derivatives and intermediates therefor” (Eli Lilly and Company, priority 1981, dated 1982).
Converted amounts (≈) assume the structure as drawn. Where two headings read alike, the source gives them in different places.

Experiments:
[1] = tested on: Klebsiella pneumoniae X26; assay: MIC by standard agar dilution test; assay type: cell-based; conditions: Table 1, read-out: Minimum Inhibitory Concentration
From the text: (§1) The antibacterial activity of the antibiotic compounds of this invention is illustrated by the following in vitro and in vivo test data obtained with representative compounds. In Tables I and II, the minimum inhibitory concentration (MIC) for representative compounds against a wide range of gram-positive and gram-negative bacteria are presented. The MIC values were obtained by the standard agar dilution test.

[2] = tested on: Pseudomonas aeruginosa SF-2; assay: MIC by standard agar dilution test; assay type: cell-based; conditions: SF2, Table II, read-out: Minimum Inhibitory Concentration
From the text: as §1

Escherichia coli EC14 = assay: MIC by standard agar dilution test; assay type: cell-based; conditions: Table 1, read-out: Minimum Inhibitory Concentration
From the text: as §1

[3] = tested on: Pseudomonas aeruginosa Ps18; assay: MIC by standard agar dilution test; assay type: cell-based; conditions: Table 1; Pseudomonas aeruginosa Ps18; agar dilution; read-out: Minimum Inhibitory Concentration
From the text: as §1

Serratia marcescens X99 = assay: MIC by standard agar dilution test; assay type: cell-based
From the text: as §1

[4] = tested on: Enterobacter cloacae EN453; assay: MIC by standard agar dilution test; assay type: cell-based; conditions: Table II, read-out: Minimum Inhibitory Concentration
From the text: as §1

Escherichia coli TEM = assay: MIC by standard agar dilution test; assay type: cell-based; conditions: read-out: Minimum Inhibitory Concentration
From the text: as §1

Proteus rettgeri C24 = assay: MIC by standard agar dilution test; assay type: cell-based; conditions: Providencia rettgeri, Table 1, read-out: Minimum Inhibitory Concentration
From the text: as §1

[5] = tested on: Bordetella bronchiseptica 16; assay: MIC by standard agar dilution test; assay type: cell-based; conditions: Bordetella bronchiseptica, 16, read-out: Minimum Inhibitory Concentration
From the text: as §1

[6] = tested on: Pseudomonas aeruginosa PI23; assay: MIC by standard agar dilution test; assay type: cell-based; conditions: Table II, read-out: Minimum Inhibitory Concentration
From the text: as §1

Escherichia coli N10 = assay: MIC by standard agar dilution test; assay type: cell-based; conditions: Table 1, read-out: Minimum Inhibitory Concentration
From the text: as §1

[7] = tested on: Citrobacter freundii CF17; assay: MIC by standard agar dilution test; assay type: cell-based; conditions: Table 1, read-out: Minimum Inhibitory Concentration
From the text: as §1

[8] = tested on: Enterobacter aerogenes EB6; assay: MIC by standard agar dilution test; assay type: cell-based; conditions: Klebsiella aerogenes; Table II; Enterobacter aerogenes EB6; agar dilution; read-out: Minimum Inhibitory Concentration
From the text: as §1

Shigella sonnei N9 = assay: MIC by standard agar dilution test; assay type: cell-based; conditions: Table 1, read-out: Minimum Inhibitory Concentration
From the text: as §1

[9] = tested on: Streptococcus pyogenes C203; assay: MIC by standard agar dilution test; assay type: cell-based; conditions: Table 1, read-out: Minimum Inhibitory Concentration
From the text: as §1

Serratia marcescens SE3 = assay: MIC by standard agar dilution test; assay type: cell-based
From the text: as §1

[10] = tested on: Pseudomonas aeruginosa X48; assay: MIC by standard agar dilution test; assay type: cell-based; conditions: Table II, read-out: Minimum Inhibitory Concentration
From the text: as §1

[11] = tested on: Staphylococcus epidermidis EPI1; assay: MIC by standard agar dilution test; assay type: cell-based; conditions: Table 1, read-out: Minimum Inhibitory Concentration
From the text: as §1

Enterobacter cloacae EB5 = assay: MIC by standard agar dilution test; assay type: cell-based; conditions: Table 1, read-out: Minimum Inhibitory Concentration
From the text: as §1

[12] = tested on: Streptococcus pneumoniae Park 1; assay: MIC by standard agar dilution test; assay type: cell-based; conditions: PARK1, Table 1, read-out: Minimum Inhibitory Concentration
From the text: as §1

Serratia marcescens SE2 = assay: MIC by standard agar dilution test; assay type: cell-based; conditions: Table II, read-out: Minimum Inhibitory Concentration
From the text: as §1

Proteus inconstans PR33 = assay: MIC by standard agar dilution test; assay type: cell-based; conditions: Providencia alcalifaciens, Table 1, read-out: Minimum Inhibitory Concentration
From the text: as §1

[13] = tested on: Streptococcus group D 9960; assay: MIC by standard agar dilution test; assay type: cell-based; conditions: D9960, Table 1, read-out: Minimum Inhibitory Concentration
From the text: as §1

[14] = tested on: Pseudomonas aeruginosa X239; assay: MIC by standard agar dilution test; assay type: cell-based
From the text: as §1

Proteus morganii PR1 = assay: MIC by standard agar dilution test; assay type: cell-based; conditions: Morganella morganii, Table II, read-out: Minimum Inhibitory Concentration
From the text: as §1

[15] = tested on: Klebsiella pneumoniae KAE; assay: MIC by standard agar dilution test; assay type: cell-based; conditions: Table 1, read-out: Minimum Inhibitory Concentration
From the text: as §1

[16] = tested on: Pseudomonas aeruginosa 4276; assay: MIC by standard agar dilution test; assay type: cell-based; conditions: Table II, read-out: Minimum Inhibitory Concentration
From the text: as §1

[17] = tested on: Salmonella typhimurium 1335; assay: MIC by standard agar dilution test; assay type: cell-based; conditions: Salmonella enterica, Table 1, read-out: Minimum Inhibitory Concentration
From the text: as §1

[18] = tested on: Pseudomonas aeruginosa Ps9; assay: MIC by standard agar dilution test; assay type: cell-based; conditions: Table II, read-out: Minimum Inhibitory Concentration
From the text: as §1

[19] = tested on: Klebsiella pneumoniae KL2; assay: MIC by standard agar dilution test; assay type: cell-based; conditions: Table II, read-out: Minimum Inhibitory Concentration
From the text: as §1

[20] = tested on: Staphylococcus aureus S13E; assay: MIC by standard agar dilution test; assay type: cell-based; conditions: read-out: Minimum Inhibitory Concentration
From the text: as §1

[21] = tested on: Staphylococcus aureus X400; assay: MIC by standard agar dilution test; assay type: cell-based; conditions: Table 1, read-out: Minimum Inhibitory Concentration
From the text: as §1

[22] = tested on: Enterobacter cloacae EB24; assay: MIC by standard agar dilution test; assay type: cell-based; conditions: Table II; Enterobacter cloacae EB24; agar dilution; read-out: Minimum Inhibitory Concentration
From the text: as §1

[23] = tested on: Enterobacter cloacae 265A; assay: MIC by standard agar dilution test; assay type: cell-based; conditions: Table 1, read-out: Minimum Inhibitory Concentration
From the text: as §1

[24] = tested on: Haemophilus influenzae HOLT; assay: MIC by standard agar dilution test; assay type: cell-based; conditions: Table 1, read-out: Minimum Inhibitory Concentration
From the text: as §1

Proteus inconstans PV25 = assay: MIC by standard agar dilution test; assay type: cell-based; conditions: Providencia alcalifaciens, Table II, read-out: Minimum Inhibitory Concentration
From the text: as §1

Proteus rettgeri PR2 = assay: MIC by standard agar dilution test; assay type: cell-based; conditions: Providencia rettgeri, Table II, read-out: Minimum Inhibitory Concentration
From the text: as §1

[25] = tested on: Staphylococcus epidermidis EPI2; assay: MIC by standard agar dilution test; assay type: cell-based; conditions: Table 1, read-out: Minimum Inhibitory Concentration
From the text: as §1

Proteus morganii PR15 = assay: MIC by standard agar dilution test; assay type: cell-based; conditions: Morganella morganii, Table 1, read-out: Minimum Inhibitory Concentration
From the text: as §1

[26] = tested on: Staphylococcus aureus V41; assay: MIC by standard agar dilution test; assay type: cell-based; conditions: Table 1, read-out: Minimum Inhibitory Concentration
From the text: as §1

[27] = tested on: Enterobacter aerogenes X68; assay: MIC by standard agar dilution test; assay type: cell-based; conditions: Klebsiella aerogenes, Table 1, read-out: Minimum Inhibitory Concentration
From the text: as §1

[28] = tested on: Staphylococcus aureus X1.1; assay: MIC by standard agar dilution test; assay type: cell-based; conditions: Table 1, read-out: Minimum Inhibitory Concentration
From the text: as §1

[29] = tested on: Pseudomonas aeruginosa Ps25; assay: MIC by standard agar dilution test; assay type: cell-based; conditions: Table II, read-out: Minimum Inhibitory Concentration
From the text: as §1

[30] = tested on: Pseudomonas aeruginosa Ps15; assay: MIC by standard agar dilution test; assay type: cell-based; conditions: Table II, read-out: Minimum Inhibitory Concentration
From the text: as §1

[31] = tested on: Enterobacter aerogenes EB17; assay: MIC by standard agar dilution test; assay type: cell-based; conditions: Klebsiella aerogenes, Table 1, read-out: Minimum Inhibitory Concentration
From the text: as §1

[32] = tested on: Pseudomonas aeruginosa X528; assay: MIC by standard agar dilution test; assay type: cell-based
From the text: as §1

[33] = tested on: Enterobacter aerogenes C32; assay: MIC by standard agar dilution test; assay type: cell-based; conditions: Klebsiella aerogenes, Table 1, read-out: Minimum Inhibitory Concentration
From the text: as §1

Proteus rettgeri PR7 = assay: MIC by standard agar dilution test; assay type: cell-based; conditions: Providencia rettgeri, Table 1, read-out: Minimum Inhibitory Concentration
From the text: as §1

[34] = tested on: Salmonella heidelberg X514; assay: MIC by standard agar dilution test; assay type: cell-based; conditions: Salmonella enterica, Table 1, read-out: Minimum Inhibitory Concentration
From the text: as §1

[35] = tested on: Haemophilus influenzae R252; assay: MIC by standard agar dilution test; assay type: cell-based; conditions: Table 1; Haemophilus influenzae R252; agar dilution; read-out: Minimum Inhibitory Concentration
From the text: as §1

[36] = tested on: Streptococcus group D X66; assay: MIC by standard agar dilution test; assay type: cell-based; conditions: DX66, Table 1, read-out: Minimum Inhibitory Concentration
From the text: as §1

[37] = tested on: Staphlyococcus aureus 3055; assay: Subcutaneous therapy of experimental bacterial infection in mice; assay type: in vivo; conditions: Mus musculus, sc, subcutaneous doses at 1 and 5 hours postinfection, read-out: Effective Dose (ED50), dose to protect 50 percent of the test animals
Procedure: Table III illustrates the effective dose (ED50, effective dose to protect 50 percent of the test animals) for a representative compound of this invention against an experimental bacterial infection in mice. | *mg/kg × 2 subcutaneous doses at 1 and 5 hours postinfection The ED50 value was determined as described by W. E. Wick et al., Journal of Bacteriology, 81 [No. 2], 233-235 (1961).

SMILES: CN[C@@H]1[C@@H](O[C@H]2O[C@H](CO)[C@@H](NC(C)=O)[C@H](O)[C@H]2O)O[C@H]2C[C@@H](N)[C@@H](O[C@H]3[C@H](O)[C@@H](O)[C@H](N)C[C@@H]3N)O[C@@H]2[C@@H]1O [Test Compound 1, 4"-N-Acetylapramycin]
- MIC [1]: 16 µg/mL (≈ 27.5 µM)
- MIC [2]: 64 µg/mL (≈ 110 µM)
- MIC (Escherichia coli EC14): 16 µg/mL (≈ 27.5 µM)
- MIC [3]: 16 µg/mL (≈ 27.5 µM)
- MIC (Serratia marcescens X99; X99, Table 1, read-out: Minimum Inhibitory Concentration): 16 µg/mL (≈ 27.5 µM)
- MIC (Serratia marcescens X99; X99, Table II, read-out: Minimum Inhibitory Concentration): 4 µg/mL (≈ 6.88 µM)
- MIC [4]: 8 µg/mL (≈ 13.8 µM)
- MIC (Escherichia coli TEM): 16 µg/mL (≈ 27.5 µM)
- MIC (Proteus rettgeri C24): 32 µg/mL (≈ 55 µM)
- MIC [5]: 128 µg/mL (≈ 220 µM)
- MIC [6]: > 128 µg/mL
- MIC (Escherichia coli N10): 32 µg/mL (≈ 55 µM)
- MIC [7]: 32 µg/mL (≈ 55 µM)
- MIC [8]: 8 µg/mL (≈ 13.8 µM)
- MIC (Shigella sonnei N9): 32 µg/mL (≈ 55 µM)
- MIC [9]: > 128 µg/mL
- MIC (Serratia marcescens SE3; SE3, Table 1, read-out: Minimum Inhibitory Concentration): 32 µg/mL (≈ 55 µM)
- MIC (Serratia marcescens SE3; SE3, Table II, read-out: Minimum Inhibitory Concentration): 8 µg/mL (≈ 13.8 µM)
- MIC [10]: 32 µg/mL (≈ 55 µM)
- MIC [11]: 32 µg/mL (≈ 55 µM)
- MIC (Enterobacter cloacae EB5): 32 µg/mL (≈ 55 µM)
- MIC [12]: 128 µg/mL (≈ 220 µM)
- MIC (Serratia marcescens SE2): 8 µg/mL (≈ 13.8 µM)
- MIC (Proteus inconstans PR33): 16 µg/mL (≈ 27.5 µM)
- MIC [13]: > 128 µg/mL
- MIC ([14]; X239, Table 1, read-out: Minimum Inhibitory Concentration): 64 µg/mL (≈ 110 µM)
- MIC ([14]; X239, Table II, read-out: Minimum Inhibitory Concentration): 32 µg/mL (≈ 55 µM)
- MIC (Proteus morganii PR1): 8 µg/mL (≈ 13.8 µM)
- MIC [15]: 16 µg/mL (≈ 27.5 µM)
- MIC [16]: 32 µg/mL (≈ 55 µM)
- MIC [17]: 32 µg/mL (≈ 55 µM)
- MIC [18]: 128 µg/mL (≈ 220 µM)
- MIC [19]: 8 µg/mL (≈ 13.8 µM)
- MIC [20]: 64 µg/mL (≈ 110 µM)
- MIC [21]: 128 µg/mL (≈ 220 µM)
- MIC [22]: 8 µg/mL (≈ 13.8 µM)
- MIC [23]: 32 µg/mL (≈ 55 µM)
- MIC [24]: 16 µg/mL (≈ 27.5 µM)
- MIC (Proteus inconstans PV25): 8 µg/mL (≈ 13.8 µM)
- MIC (Proteus rettgeri PR2): 32 µg/mL (≈ 55 µM)
- MIC [25]: 64 µg/mL (≈ 110 µM)
- MIC (Proteus morganii PR15): 32 µg/mL (≈ 55 µM)
- MIC [26]: 64 µg/mL (≈ 110 µM)
- MIC [27]: 16 µg/mL (≈ 27.5 µM)
- MIC [28]: 32 µg/mL (≈ 55 µM)
- MIC [29]: 32 µg/mL (≈ 55 µM)
- MIC [30]: 32 µg/mL (≈ 55 µM)
- MIC [31]: 16 µg/mL (≈ 27.5 µM)
- Minimum Inhibitory Concentration ([32]; Table 1): 64 µg/mL
- MIC ([32]; Table II, read-out: Minimum Inhibitory Concentration): 64 µg/mL (≈ 110 µM)
- MIC [33]: 16 µg/mL (≈ 27.5 µM)
- MIC (Proteus rettgeri PR7): 32 µg/mL (≈ 55 µM)
- MIC [34]: 32 µg/mL (≈ 55 µM)
- MIC [35]: 16 µg/mL (≈ 27.5 µM)
- MIC [36]: > 128 µg/mL
- ED50 [37]: 9.4 mg/kg
